Laboratory results published in patent US20250282794A1 (CURADEV PHARMA LTD, priority 2022, published 2025).

The compounds below were run against recombinant full length HPK-1 enzyme (Homo sapiens (Human), UniProt Q92918) (assay: HPK-1 biochemical enzyme assay (ADP-Glo kinase inhibition)). Conditions: recombinant full length HPK-1 6.8 nM, 10 μM ATP, 12.5 μM MBP, 30 mins at 25° C.
Sequence of recombinant full length HPK-1 enzyme (Q92918 whole entry, species assumed): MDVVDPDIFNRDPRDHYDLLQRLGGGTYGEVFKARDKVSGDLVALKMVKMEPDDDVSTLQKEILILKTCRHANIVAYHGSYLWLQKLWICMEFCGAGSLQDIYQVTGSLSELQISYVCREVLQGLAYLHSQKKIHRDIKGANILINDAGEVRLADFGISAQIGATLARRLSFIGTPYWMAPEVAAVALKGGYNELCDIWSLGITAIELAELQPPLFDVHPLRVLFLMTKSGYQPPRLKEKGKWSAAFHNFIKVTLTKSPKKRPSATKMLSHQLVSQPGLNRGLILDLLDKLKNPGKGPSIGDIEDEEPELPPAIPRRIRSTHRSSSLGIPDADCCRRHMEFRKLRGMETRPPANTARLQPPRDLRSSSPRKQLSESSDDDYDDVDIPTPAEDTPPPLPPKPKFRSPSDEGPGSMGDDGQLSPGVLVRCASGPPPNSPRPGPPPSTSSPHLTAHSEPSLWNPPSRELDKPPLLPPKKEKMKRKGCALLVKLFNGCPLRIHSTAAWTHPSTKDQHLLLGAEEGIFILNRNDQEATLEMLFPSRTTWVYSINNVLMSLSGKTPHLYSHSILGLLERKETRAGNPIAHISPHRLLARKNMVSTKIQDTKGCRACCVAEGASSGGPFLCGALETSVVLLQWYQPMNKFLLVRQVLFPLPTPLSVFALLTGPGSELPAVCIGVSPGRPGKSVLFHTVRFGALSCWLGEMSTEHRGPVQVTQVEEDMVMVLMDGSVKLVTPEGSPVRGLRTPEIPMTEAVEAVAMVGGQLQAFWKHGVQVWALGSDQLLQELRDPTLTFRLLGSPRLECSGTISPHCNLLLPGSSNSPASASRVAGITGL
Procedure, shortened: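 Recombinant full-length human HPK-1 (6.8 nM) incubated 30 min at 25° C. with 10 μM ATP and 12.5 μM swine MBP in 40 mM Tris pH 7.4, 20 mM MgCl2, 50 μM DTT, 0.1 mg/mL BSA. ADP measured by ADP-Glo; IC50 from 10 concentrations, normalized to no-enzyme and vehicle controls.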
Compound `CO[C@H](C)C(=O)N1CCN(c2ccc(NC(=O)c3c(Nc4cnc5c(c4C)NCCO5)cc[nH]c3=O)cc2)CC1` [Example 353, (R)-N-(4-(4-(2-methoxypropanoyl)piperazin-1-yl)phenyl)-4-((8-methyl-2,3-dihydro-1H-pyrido[2,3-b][1,4]oxazin-7-yl)amino)-2-oxo-1,2-dihydropyridine-3-carboxamide] has an IC50 of 0.01 to 0.1 µM.
In the case of `CNC(C)C(=O)N1CCN(c2ccc(NC(=O)c3c(Nc4cnc5c(c4C)NCCO5)cc[nH]c3=O)cc2)CC1` (stereo not shown) [Example 354, 4-((8-methyl-2,3-dihydro-1H-pyrido[2,3-b][1,4]oxazin-7-yl)amino)-N-(4-(4-(methylalanyl)piperazin-1-yl)phenyl)-2-oxo-1,2-dihydropyridine-3-carboxamide], the IC50 is reported as 0.01 to 0.1 µM.
With `Cc1c(Nc2cc[nH]c(=O)c2C(=O)Nc2ccc(N3CCN(C(=O)C4(C)CC4)CC3)cc2)cnc2c1NCCO2` [Example 355, 4-((8-methyl-2,3-dihydro-1H-pyrido[2,3-b][1,4]oxazin-7-yl)amino)-N-(4-(4-(1-methylcyclopropane-1-carbonyl)piperazin-1-yl)phenyl)-2-oxo-1,2-dihydropyridine-3-carboxamide] the IC50 was at most 0.01 µM.
Compound `Cc1c(Nc2cc[nH]c(=O)c2C(=O)Nc2ccc(N3CCN(C(=O)C4CCN(C)C4)CC3)cc2)cnc2c1NCCO2` (stereo not shown) [Example 356, 4-((8-methyl-2,3-dihydro-1H-pyrido[2,3-b][1,4]oxazin-7-yl)amino)-N-(4-(4-(1-methylpyrrolidine-3-carbonyl)piperazin-1-yl)phenyl)-2-oxo-1,2-dihydropyridine-3-carboxamide] has an IC50 of 0.01 to 0.1 µM.
For `Cc1c(Nc2cc[nH]c(=O)c2C(=O)Nc2ccc(N3CCN(C(=O)C(C)(C)O)CC3)cc2)cnc2c1NCCO2` [Example 357, N-(4-(4-(2-hydroxy-2-methylpropanoyl)piperazin-1-yl)phenyl)-4-((8-methyl-2,3-dihydro-1H-pyrido[2,3-b][1,4]oxazin-7-yl)amino)-2-oxo-1,2-dihydropyridine-3-carboxamide], the IC50 was at most 0.01 µM.
Work on `Cc1c(Nc2cc[nH]c(=O)c2C(=O)Nc2ccc(N3CCN(C(=O)C(C)N(C)C)CC3)cc2)cnc2c1NCCO2` (stereo not shown) [Example 358, N-(4-(4-(dimethylalanyl)piperazin-1-yl)phenyl)-4-((8-methyl-2,3-dihydro-1H-pyrido[2,3-b][1,4]oxazin-7-yl)amino)-2-oxo-1,2-dihydropyridine-3-carboxamide] yielded an IC50 of 0.01 to 0.1 µM.
For `Cc1c(Nc2cc[nH]c(=O)c2C(=O)Nc2ccc(N3CCN4C(=O)CC[C@H]4C3)cc2)cnc2c1NCCO2` [Example 359, (S)-4-((8-methyl-2,3-dihydro-1H-pyrido[2,3-b][1,4]oxazin-7-yl)amino)-2-oxo-N-(4-(6-oxohexahydropyrrolo[1,2-a]pyrazin-2(1H)-yl)phenyl)-1,2-dihydropyridine-3-carboxamide], the IC50 was 0.01 to 0.1 µM.
Compound `Cc1c(Nc2cc[nH]c(=O)c2C(=O)Nc2ccc(N3CCN(C)CC3)c(F)c2)cnc2c1NCC(C)O2` (stereo not shown) [Example 360, 4-((3,8-dimethyl-2,3-dihydro-1H-pyrido[2,3-b][1,4]oxazin-7-yl)amino)-N-(3-fluoro-4-(4-methylpiperazin-1-yl)phenyl)-2-oxo-1,2-dihydropyridine-3-carboxamide] has an IC50 of 0.01 to 0.1 µM.
`CCN1CCN(c2ccc(NC(=O)c3c(Nc4cnc5c(c4C)NCC(C)O5)cc[nH]c3=O)cc2F)CC1` (stereo not shown) [Example 361, 4-((3,8-dimethyl-2,3-dihydro-1H-pyrido[2,3-b][1,4]oxazin-7-yl)amino)-N-(4-(4-ethylpiperazin-1-yl)-3-fluorophenyl)-2-oxo-1,2-dihydropyridine-3-carboxamide] showed an IC50 of 0.01 to 0.1 µM.
In the case of `CCC(=O)N1CCN(c2ccc(NC(=O)c3c(Nc4cnc5c(c4C)NCC(C)O5)cc[nH]c3=O)cc2)CC1` (stereo not shown) [Example 362, 4-((3,8-dimethyl-2,3-dihydro-1H-pyrido[2,3-b][1,4]oxazin-7-yl)amino)-2-oxo-N-(4-(4-propionylpiperazin-1-yl)phenyl)-1,2-dihydropyridine-3-carboxamide], the IC50 is reported as 0.01 to 0.1 µM.
With `Cc1ccc(N2CCN(c3ccc(NC(=O)c4c(Nc5cnc6c(c5C)NCCO6)cc[nH]c4=O)cc3)CC2)cn1` [Example 363, 4-((8-Methyl-2,3-dihydro-1H-pyrido[2,3-b][1,4]oxazin-7-yl)amino)-N-(4-(4-(6-methylpyridin-3-yl)piperazin-1-yl)phenyl)-2-oxo-1,2-dihydropyridine-3-carboxamide] the IC50 was 0.01 to 0.1 µM.
With `COCc1cc(N2CCN(c3ccc(NC(=O)c4c(Nc5cnc6c(c5C)NCCO6)cc[nH]c4=O)cc3)CC2)ccn1` [Example 364, N-(4-(4-(2-(methoxymethyl)pyridin-4-yl)piperazin-1-yl)phenyl)-4-((8-methyl-2,3-dihydro-1H-pyrido[2,3-b][1,4]oxazin-7-yl)amino)-2-oxo-1,2-dihydropyridine-3-carboxamide] the IC50 was 0.01 to 0.1 µM.
For `Cc1c(Nc2cc[nH]c(=O)c2C(=O)Nc2ccc(N3CCN(c4ccnc(C(=O)N(C)C)c4)CC3)cc2)cnc2c1NCCO2` [Example 365, N,N-dimethyl-4-(4-(4-(4-((8-methyl-2,3-dihydro-1H-pyrido[2,3-b][1,4]oxazin-7-yl)amino)-2-oxo-1,2-dihydropyridine-3-carboxamido)phenyl)piperazin-1-yl)picolinamide], the IC50 was 0.01 to 0.1 µM.
`Cc1c(Nc2cc[nH]c(=O)c2C(=O)Nc2ccc(N3CCN(c4nccn4C)CC3)cc2)cnc2c1NCCO2` [Example 366, N-(4-(4-(1-methyl-1H-imidazol-2-yl)piperazin-1-yl)phenyl)-4-((8-methyl-2,3-dihydro-1H-pyrido[2,3-b][1,4]oxazin-7-yl)amino)-2-oxo-1,2-dihydropyridine-3-carboxamide] was tested, and the IC50 was at most 0.01 µM.
Work on `Cc1c(Nc2cc[nH]c(=O)c2C(=O)Nc2ccc(N3CCN(c4cscn4)CC3)cc2)cnc2c1NCCO2` [Example 367, 4-((8-methyl-2,3-dihydro-1H-pyrido[2,3-b][1,4]oxazin-7-yl)amino)-2-oxo-N-(4-(4-(thiazol-4-yl)piperazin-1-yl)phenyl)-1,2-dihydropyridine-3-carboxamide] yielded an IC50 of 0.01 to 0.1 µM.
`CCOCCN1CCN(c2ccc(NC(=O)c3c(Nc4cnc5c(c4C)NCCO5)cc[nH]c3=O)cc2)CC1` [Example 368, N-(4-(4-(2-ethoxyethyl)piperazin-1-yl)phenyl)-4-((8-methyl-2,3-dihydro-1H-pyrido[2,3-b][1,4]oxazin-7-yl)amino)-2-oxo-1,2-dihydropyridine-3-carboxamide] showed an IC50 of 0.01 to 0.1 µM.
`COC(C)CN1CCN(c2ccc(NC(=O)c3c(Nc4cnc5c(c4C)NCCO5)cc[nH]c3=O)cc2)CC1` (stereo not shown) [Example 369, N-(4-(4-(2-methoxypropyl)piperazin-1-yl)phenyl)-4-((8-methyl-2,3-dihydro-1H-pyrido[2,3-b][1,4]oxazin-7-yl)amino)-2-oxo-1,2-dihydropyridine-3-carboxamide] was tested, and the IC50 was 0.01 to 0.1 µM.
Work on `Cc1c(Nc2cc[nH]c(=O)c2C(=O)Nc2ccc(N3CCN(CC(C)C)CC3)cc2)cnc2c1NCCO2` [Example 370, N-(4-(4-isobutylpiperazin-1-yl)phenyl)-4-((8-methyl-2,3-dihydro-1H-pyrido[2,3-b][1,4]oxazin-7-yl)amino)-2-oxo-1,2-dihydropyridine-3-carboxamide] yielded an IC50 of at most 0.01 µM.
With `Cc1c(Nc2cc[nH]c(=O)c2C(=O)Nc2ccc(N3CCN(c4nccs4)CC3)cc2)cnc2c1NCCO2` [Example 371, 4-((8-Methyl-2,3-dihydro-1H-pyrido[2,3-b][1,4]oxazin-7-yl)amino)-2-oxo-N-(4-(4-(thiazol-2-yl)piperazin-1-yl)phenyl)-1,2-dihydropyridine-3-carboxamide] the IC50 was 0.01 to 0.1 µM.
`Cc1c(Nc2cc[nH]c(=O)c2C(=O)Nc2ccc(N3CCN(C(=O)C4CC4)CC3)cc2)cnc2c1NCC(C)O2` (stereo not shown) [Example 372, N-(4-(4-(cyclopropanecarbonyl)piperazin-1-yl)phenyl)-4-((3,8-dimethyl-2,3-dihydro-1H-pyrido[2,3-b][1,4]oxazin-7-yl)amino)-2-oxo-1,2-dihydropyridine-3-carboxamide] showed an IC50 of at most 0.01 µM.
Work on `Cc1c(Nc2cc[nH]c(=O)c2C(=O)Nc2ccc(N3CCN(C(=O)C4CN(C)C4)CC3)cc2)cnc2c1NCCO2` [Example 373, 4-((8-methyl-2,3-dihydro-1H-pyrido[2,3-b][1,4]oxazin-7-yl)amino)-N-(4-(4-(1-methylazetidine-3-carbonyl)piperazin-1-yl)phenyl)-2-oxo-1,2-dihydropyridine-3-carboxamide] yielded an IC50 of 0.01 to 0.1 µM.
With `Cc1c(Nc2cc[nH]c(=O)c2C(=O)Nc2ccc(N3CCN4C(=O)CCCC4C3)cc2)cnc2c1NCCO2` (stereo not shown) [Example 374, 4-((8-methyl-2,3-dihydro-1H-pyrido[2,3-b][1,4]oxazin-7-yl)amino)-2-oxo-N-(4-(6-oxooctahydro-2H-pyrido[1,2-a]pyrazin-2-yl)phenyl)-1,2-dihydropyridine-3-carboxamide] the IC50 was 0.01 to 0.1 µM.
In the case of `Cc1c(Nc2cc[nH]c(=O)c2C(=O)Nc2ccc(N3CCC(O)(CN(C)C)CC3)cc2)cnc2c1NCCO2` [Example 375, N-(4-(4-((dimethylamino)methyl)-4-hydroxypiperidin-1-yl)phenyl)-4-((8-methyl-2,3-dihydro-1H-pyrido[2,3-b][1,4]oxazin-7-yl)amino)-2-oxo-1,2-dihydropyridine-3-carboxamide], the IC50 is reported as at most 0.01 µM.
Work on `Cc1c(Nc2cc[nH]c(=O)c2C(=O)Nc2ccc(N3CCN(C4CC4)CC3)c(F)c2)cnc2c1NCCO2` [Example 376, N-(4-(4-cyclopropylpiperazin-1-yl)-3-fluorophenyl)-4-((8-methyl-2,3-dihydro-1H-pyrido[2,3-b][1,4]oxazin-7-yl)amino)-2-oxo-1,2-dihydropyridine-3-carboxamide] yielded an IC50 of at most 0.01 µM.
`Cc1c(Nc2cc[nH]c(=O)c2C(=O)Nc2ccc(N3CCN4C(=O)N(C)CC4C3)cc2)cnc2c1NCCO2` (stereo not shown) [Example 377, 4-((8-methyl-2,3-dihydro-1H-pyrido[2,3-b][1,4]oxazin-7-yl)amino)-N-(4-(2-methyl-3-oxohexahydroimidazo[1,5-a]pyrazin-7(1H)-yl)phenyl)-2-oxo-1,2-dihydropyridine-3-carboxamide] was tested, and the IC50 was at most 0.01 µM.
